The term IC50 denotes the concentration that gives 50% inhibition. Higher therefore signals a need for much substance. As a reminder, the inhibition is the change of the read-out against control, counted positive when it falls.

Each structure is given as a SMILES string. Activity calls are given as the source filed them. The rule behind the calls is not given here.

The nature of series [1]: Inhibition of MAO (unknown origin). Further details: species or system Homo sapiens.
The target in series [2] is Acetylcholinesterase (Homo sapiens, UniProt P22303). As to the kind of experiment: Inhibition of AChE (unknown origin).
Sequence of Acetylcholinesterase (Homo sapiens, UniProt P22303) (P22303 whole entry): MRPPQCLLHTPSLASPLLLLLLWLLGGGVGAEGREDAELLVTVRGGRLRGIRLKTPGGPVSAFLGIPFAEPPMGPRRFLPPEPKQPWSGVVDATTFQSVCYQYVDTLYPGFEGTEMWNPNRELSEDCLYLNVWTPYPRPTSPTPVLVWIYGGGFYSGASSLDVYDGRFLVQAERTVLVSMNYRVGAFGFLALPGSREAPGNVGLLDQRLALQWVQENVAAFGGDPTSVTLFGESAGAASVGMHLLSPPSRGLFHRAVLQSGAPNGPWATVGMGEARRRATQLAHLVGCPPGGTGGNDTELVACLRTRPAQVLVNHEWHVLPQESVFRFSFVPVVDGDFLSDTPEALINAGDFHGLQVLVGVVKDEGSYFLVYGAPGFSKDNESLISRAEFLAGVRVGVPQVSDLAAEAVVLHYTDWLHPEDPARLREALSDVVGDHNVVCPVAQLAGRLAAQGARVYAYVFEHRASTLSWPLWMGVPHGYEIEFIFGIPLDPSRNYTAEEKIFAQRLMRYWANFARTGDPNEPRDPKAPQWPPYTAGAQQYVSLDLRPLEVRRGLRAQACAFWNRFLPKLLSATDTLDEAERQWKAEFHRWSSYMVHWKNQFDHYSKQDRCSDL
The target in series [3] is T1, Amine oxidase [flavin-containing] B (Homo sapiens, UniProt P27338).
T1 sequence (P27338 whole entry): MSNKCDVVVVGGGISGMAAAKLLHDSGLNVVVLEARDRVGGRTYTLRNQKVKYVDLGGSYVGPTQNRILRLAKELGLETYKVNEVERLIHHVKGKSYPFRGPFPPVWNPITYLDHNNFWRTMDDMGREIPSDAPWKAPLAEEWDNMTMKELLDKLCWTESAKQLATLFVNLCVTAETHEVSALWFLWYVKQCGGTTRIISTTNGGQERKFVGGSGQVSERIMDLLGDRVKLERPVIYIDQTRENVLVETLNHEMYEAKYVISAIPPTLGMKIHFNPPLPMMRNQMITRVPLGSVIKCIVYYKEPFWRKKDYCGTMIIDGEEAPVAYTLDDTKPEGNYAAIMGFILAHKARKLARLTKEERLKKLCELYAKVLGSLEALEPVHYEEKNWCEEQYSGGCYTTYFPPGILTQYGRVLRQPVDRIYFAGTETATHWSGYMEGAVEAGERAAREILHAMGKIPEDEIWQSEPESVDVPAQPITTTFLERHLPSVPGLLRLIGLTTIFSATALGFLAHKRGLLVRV
As to the kind of experiment: Inhibition of MAO-B (unknown origin).

Series [4] is described as follows: Cytotoxicity against human SH-SY5Y cells assessed as cell viability at 1 uM by MTT assay (reference value: 100 +/- 0.22). It counts as toxicity, cell-based. The conditions noted are these: read-out: Activity. (Tetrazolium dyes change colour on reduction, which living cells bring about.)
Series [5] has as its target Amyloid-beta precursor protein (Homo sapiens) (UniProt P05067). As to the kind of experiment: Inhibition of amyloid beta (1 to 42) (unknown origin) aggregation at 10 uM incubated for 48 hrs by ThT assay relative to control.
The target of series [6] is Acetylcholinesterase (Electrophorus electricus) (UniProt O42275). As to the kind of experiment: Inhibition of electric eel AChE assessed as residual activity at 100 time IC50 concentration using acetylthiocholine iodide as substrate incubated for 30 min by DTNB reagent based Ellman's method (reference value: 100 +/- 0.37%). (In general: In Ellman's method for cholinesterases, released thiocholine reacts with DTNB.)
Sequence of Acetylcholinesterase (Electrophorus electricus) (O42275 24-633 limits assumed): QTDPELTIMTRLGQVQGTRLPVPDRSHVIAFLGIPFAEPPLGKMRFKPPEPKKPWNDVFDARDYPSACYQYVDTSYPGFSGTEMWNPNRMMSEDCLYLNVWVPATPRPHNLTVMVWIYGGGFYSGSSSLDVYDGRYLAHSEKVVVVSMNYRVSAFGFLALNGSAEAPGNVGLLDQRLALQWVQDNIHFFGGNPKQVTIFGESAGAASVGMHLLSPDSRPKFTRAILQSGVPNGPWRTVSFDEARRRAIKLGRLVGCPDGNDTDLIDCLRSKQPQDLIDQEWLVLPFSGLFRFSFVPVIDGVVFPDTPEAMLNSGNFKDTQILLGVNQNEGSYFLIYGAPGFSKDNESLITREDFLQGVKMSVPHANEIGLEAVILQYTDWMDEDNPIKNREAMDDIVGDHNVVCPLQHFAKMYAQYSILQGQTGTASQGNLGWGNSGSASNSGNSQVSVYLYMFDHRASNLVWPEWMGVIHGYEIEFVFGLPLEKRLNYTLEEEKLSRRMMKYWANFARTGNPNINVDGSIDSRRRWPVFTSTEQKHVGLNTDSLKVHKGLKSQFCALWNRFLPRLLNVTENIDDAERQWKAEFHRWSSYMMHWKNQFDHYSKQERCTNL

Series [7] has as its target T1, Amine oxidase [flavin-containing] B. As to the kind of experiment: Inhibition of human MAO-B using p-tyramine as substrate incubated for 30 mins by Amplex Red reagent based fluorescence analysis.
Series [8] concerns the target Acetylcholinesterase (Electrophorus electricus) (UniProt O42275). As to the kind of experiment: Inhibition of electric eel AChE assessed as residual activity at 10 time IC50 concentration using acetylthiocholine iodide as substrate incubated for 30 min by DTNB reagent based Ellman's method (reference value: 100 +/- 0.37%).
In series [9] the target is T2, Amine oxidase [flavin-containing] A (Homo sapiens, UniProt P21397).
T2 sequence (P21397 whole entry): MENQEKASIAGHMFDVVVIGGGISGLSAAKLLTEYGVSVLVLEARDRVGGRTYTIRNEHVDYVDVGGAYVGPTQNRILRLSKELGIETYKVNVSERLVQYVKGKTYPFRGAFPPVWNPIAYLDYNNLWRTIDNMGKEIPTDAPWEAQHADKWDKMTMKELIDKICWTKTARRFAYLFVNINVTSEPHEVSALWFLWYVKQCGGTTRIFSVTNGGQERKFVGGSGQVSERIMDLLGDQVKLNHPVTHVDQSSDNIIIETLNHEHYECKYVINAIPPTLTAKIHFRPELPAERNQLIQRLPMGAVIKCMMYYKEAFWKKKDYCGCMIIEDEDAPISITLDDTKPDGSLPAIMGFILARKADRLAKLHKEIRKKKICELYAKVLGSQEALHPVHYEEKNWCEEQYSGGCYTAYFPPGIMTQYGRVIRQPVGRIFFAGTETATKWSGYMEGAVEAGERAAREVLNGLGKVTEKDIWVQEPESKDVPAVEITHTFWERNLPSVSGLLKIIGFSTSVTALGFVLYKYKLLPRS
As to the kind of experiment: Inhibition of human MAO-A at 10 uM using p-tyramine as substrate incubated for 30 mins by Amplex Red reagent based fluorescence analysis relative to control. The conditions noted are these: 0.5 h.

Series [10] has as its target T1, Amine oxidase [flavin-containing] B. As to the kind of experiment: Reversible inhibition of human MAO-B assessed as residual activity at 10 time IC50 concentration using p-tyramine as substrate incubated for 30 mins followed by 100-fold dilution with substrate and buffer solutions by Amplex Red reagent based fluorescence analysis (reference value: 100 +/- 0.37%). The conditions noted are these: 0.5 h.

Series [11] is described as follows: Cytotoxicity against human SH-SY5Y cells assessed as cell viability at 25 uM by MTT assay (reference value: 100 +/- 0.22). The conditions noted are these: read-out: Activity. It is filed as toxicity, cell-based.
In series [12] the target is Acetylcholinesterase (Electrophorus electricus) (UniProt O42275). As to the kind of experiment: Inhibition of electric eel AChE at 20 uM using acetylthiocholine iodide as substrate incubated for 30 min by DTNB reagent based Ellman's method relative to control.
In series [13] the target is T1, Amine oxidase [flavin-containing] B. As to the kind of experiment: Inhibition of human MAO-B assessed as residual activity at 10 time IC50 concentration using p-tyramine as substrate incubated for 30 mins by Amplex Red reagent based fluorescence analysis (reference value: 100 +/- 0.37%). The conditions noted are these: 0.5 h.
Series [14] concerns the target Amyloid-beta precursor protein (Homo sapiens) (UniProt P05067). As to the kind of experiment: Inhibition of amyloid beta (1 to 42) (unknown origin) aggregation at 10 uM incubated for 24 hrs by ThT assay relative to control.
For series [15], the target named is Acetylcholinesterase (Electrophorus electricus) (UniProt O42275). As to the kind of experiment: Reversible inhibition of electric eel AChE assessed as residual activity at 10 time IC50 concentration using acetylthiocholine iodide as substrate incubated for 30 min followed by 100-fold dilution with substrate and buffer solutions by DTNB reagent based Ellman's method (reference value: 100 +/- 0.37%).

Series [16] has the same target. As to the kind of experiment: Non-competitive inhibition of electric eel AChE assessed as increase in Km using acetylthiocholine iodide as substrate incubated for 30 min by Ellman's method based Lineweaver-Burk plot analysis.
The nature of series [17]: Cytotoxicity against human SH-SY5Y cells assessed as cell viability at 5 uM by MTT assay (reference value: 100 +/- 0.22). It is filed as toxicity, cell-based. The conditions noted are these: read-out: Activity.
Series [18] deals with T1, Amine oxidase [flavin-containing] B. As to the kind of experiment: Reversible inhibition of human MAO-B assessed as residual activity at 100 time IC50 concentration using p-tyramine as substrate incubated for 30 mins followed by 100-fold dilution with substrate and buffer solutions by Amplex Red reagent based fluorescence analysis (reference value: 100 +/- 0.37%). The conditions noted are these: 0.5 h.

Series [19] addresses Acetylcholinesterase (Electrophorus electricus) (UniProt O42275). As to the kind of experiment: Non-competitive inhibition of electric eel AChE assessed as decrease in Vmax using acetylthiocholine iodide as substrate incubated for 30 min by Ellman's method based Lineweaver-Burk plot analysis.
Series [20] has the same target. As to the kind of experiment: Reversible inhibition of electric eel AChE assessed as residual activity at 100 time IC50 concentration using acetylthiocholine iodide as substrate incubated for 30 min followed by 100-fold dilution with substrate and buffer solutions by DTNB reagent based Ellman's method (reference value: 100 +/- 0.37%).
In series [21] the target is Cholinesterase (Equus caballus) (UniProt P81908). As to the kind of experiment: Inhibition of equine BuChE at 20 uM using butyryl-thiocholine iodide as substrate incubated for 30 min by DTNB reagent based Ellman's method relative to control.
Sequence of Cholinesterase (Equus caballus) (P81908 whole entry): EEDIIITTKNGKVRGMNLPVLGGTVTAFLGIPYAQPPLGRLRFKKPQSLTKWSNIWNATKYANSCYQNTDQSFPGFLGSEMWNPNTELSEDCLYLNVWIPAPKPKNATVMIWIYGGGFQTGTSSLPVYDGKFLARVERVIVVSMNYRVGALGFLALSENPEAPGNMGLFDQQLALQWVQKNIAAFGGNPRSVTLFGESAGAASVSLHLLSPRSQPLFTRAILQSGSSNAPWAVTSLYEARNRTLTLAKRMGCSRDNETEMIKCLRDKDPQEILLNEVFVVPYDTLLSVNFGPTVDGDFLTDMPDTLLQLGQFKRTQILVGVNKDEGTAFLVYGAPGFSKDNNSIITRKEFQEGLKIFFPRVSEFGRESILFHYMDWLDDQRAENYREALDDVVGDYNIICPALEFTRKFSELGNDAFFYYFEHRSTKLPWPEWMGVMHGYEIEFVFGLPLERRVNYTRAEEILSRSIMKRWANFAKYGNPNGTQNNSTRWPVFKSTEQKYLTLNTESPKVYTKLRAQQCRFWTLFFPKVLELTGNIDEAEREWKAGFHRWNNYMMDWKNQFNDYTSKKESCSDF
In series [22] the target is T1, Amine oxidase [flavin-containing] B. As to the kind of experiment: Inhibition of human MAO-B assessed as residual activity at 100 time IC50 concentration using p-tyramine as substrate incubated for 30 mins by Amplex Red reagent based fluorescence analysis (reference value: 100 +/- 0.37%). The note with it: 0.5 h.
Series [23] concerns the target Acetylcholinesterase (Electrophorus electricus, UniProt O42275). As to the kind of experiment: Inhibition of electric eel AChE using acetylthiocholine iodide as substrate incubated for 30 min by DTNB reagent based Ellman's method.
Series [24] deals with T1, Amine oxidase [flavin-containing] B. As to the kind of experiment: Inhibition of human MAO-B at 10 uM using p-tyramine as substrate incubated for 30 mins by Amplex Red reagent based fluorescence analysis relative to control. The note with it: 0.5 h.
Series [25] has the same target. As to the kind of experiment: Inhibition of human MAO-B using p-tyramine as substrate preincubated for 15 mins followed by substrate addition and measured after 30 mins by Amplex Red reagent based fluorescence analysis.
Series [26] deals with T2, Amine oxidase [flavin-containing] A. As to the kind of experiment: Inhibition of human MAO-A at 25 uM using p-tyramine as substrate incubated for 30 mins by Amplex Red reagent based fluorescence analysis. The conditions noted are these: 0.5 h.

Sequence of Amyloid-beta precursor protein (Homo sapiens) (P05067 whole entry): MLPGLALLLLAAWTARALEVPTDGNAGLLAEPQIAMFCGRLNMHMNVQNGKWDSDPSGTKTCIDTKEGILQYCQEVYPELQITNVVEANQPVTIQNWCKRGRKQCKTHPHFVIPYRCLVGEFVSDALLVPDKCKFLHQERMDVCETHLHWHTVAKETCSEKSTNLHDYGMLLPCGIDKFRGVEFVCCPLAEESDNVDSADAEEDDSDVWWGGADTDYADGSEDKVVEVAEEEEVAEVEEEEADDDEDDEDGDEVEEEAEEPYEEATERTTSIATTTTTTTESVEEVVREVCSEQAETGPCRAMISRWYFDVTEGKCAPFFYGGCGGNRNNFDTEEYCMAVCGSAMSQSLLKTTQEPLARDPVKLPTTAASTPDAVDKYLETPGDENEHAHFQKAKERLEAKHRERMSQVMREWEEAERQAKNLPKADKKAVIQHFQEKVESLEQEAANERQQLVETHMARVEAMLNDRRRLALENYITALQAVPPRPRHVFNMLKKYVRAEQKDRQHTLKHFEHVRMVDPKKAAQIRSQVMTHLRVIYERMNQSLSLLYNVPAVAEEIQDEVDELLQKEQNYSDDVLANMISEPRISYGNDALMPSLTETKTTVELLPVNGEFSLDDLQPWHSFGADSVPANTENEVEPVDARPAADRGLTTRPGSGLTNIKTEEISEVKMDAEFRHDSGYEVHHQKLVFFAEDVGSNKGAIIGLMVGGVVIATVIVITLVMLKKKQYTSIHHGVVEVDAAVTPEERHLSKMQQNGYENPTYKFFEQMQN
Sequence of Acetylcholinesterase (Electrophorus electricus, UniProt O42275) (O42275 whole entry): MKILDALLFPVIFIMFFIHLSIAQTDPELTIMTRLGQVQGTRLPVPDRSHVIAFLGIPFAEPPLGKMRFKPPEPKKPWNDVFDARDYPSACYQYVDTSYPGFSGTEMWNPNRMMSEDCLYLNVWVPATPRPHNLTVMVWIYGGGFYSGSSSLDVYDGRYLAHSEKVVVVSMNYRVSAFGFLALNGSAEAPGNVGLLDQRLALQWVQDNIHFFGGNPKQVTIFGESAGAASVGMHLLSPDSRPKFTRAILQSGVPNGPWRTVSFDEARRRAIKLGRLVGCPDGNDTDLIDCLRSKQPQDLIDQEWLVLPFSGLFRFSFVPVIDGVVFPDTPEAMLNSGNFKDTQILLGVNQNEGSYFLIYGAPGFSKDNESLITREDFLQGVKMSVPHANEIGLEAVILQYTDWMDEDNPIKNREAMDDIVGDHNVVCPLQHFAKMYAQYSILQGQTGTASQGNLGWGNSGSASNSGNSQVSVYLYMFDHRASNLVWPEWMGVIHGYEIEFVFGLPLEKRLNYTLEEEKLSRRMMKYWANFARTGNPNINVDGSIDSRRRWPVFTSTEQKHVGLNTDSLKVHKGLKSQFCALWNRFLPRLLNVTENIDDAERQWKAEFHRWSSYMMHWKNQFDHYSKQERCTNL

As to `O=C1c2ccccc2-c2cnc(-c3ccccc3)nc21`, 2.37 µM corresponded to half-maximal inhibition in series [1] (IC50).

Consider `C#CCNc1ccccc1-c1cc(-c2ccc(OCCN3CCCCC3)cc2)nc(N)n1`, for which the values for the IC50 (at Acetylcholinesterase [2]; in [3]) were 40 µM and 0.37 µM, respectively.

As to `C#CCOc1cccc(-c2cc(/C=C/c3ccccc3)ncn2)c1`, the viability at 1 µM in [4] came to 91%. The inhibition in [5] worked out at 33%; in [12], 69.2%; in series [14], 29.3%; in series [21], 6.43%. Moreover, the Activity in series [6] turned out to be 13.6%; in series [8], 5.18%; in [10] it was 34.91%; in series [13] it was 2.6%; in series [15], 96.7%; in series [18], 36.72%. Also, the Activity in series [20] was 47.9%; in [22] it was 3.4%. Moreover, the values for the half-inhibitory concentration (IC50) (in series [7]; at Acetylcholinesterase [23]) were 4.93 µM and 9.02 µM, respectively. Moreover, the inhibition at 10 µM turned out to be 13.9% in series [9] and 76.4% in [24]. Also, in series [11], the viability at 25 µM turned out to be 86.5%. In addition, the inhibition result in series [16] and in series [19] was “Active” in each case. The viability at 5 µM in [17] is 90.7%.

In [25], `C#CCOc1ccccc1-c1cc(-c2ccc(Cl)cc2)nc(-c2ccccc2)n1` displayed an IC50 of 0.48 µM.

Regarding `C#CCOc1ccc(-c2cc(/C(C)=C\c3ccccc3)ncn2)cc1`, the viability at 1 µM in [4] was found to be 98.1%. The inhibition in series [5] turned out to be 23.2%; in series [12] it was 69%; in [14] it was 21.6%; in series [21], 9.69%. Moreover, the Activity in [6] came out at 18.6%; in [8] it was 7.45%; in series [10], 30.37%; in series [13], 2.79%; in series [15] it was 97.1%; in series [18], 36.07%. The Activity in series [20] was found to be 42.9%; in [22] it was 2.79%. Also, the IC50 in series [7] was determined as 7.26 µM; on Acetylcholinesterase [23] it was 9.29 µM. In addition, the viability at 25 µM in series [11] turned out to be 95.7%. Besides, the inhibition entry in series [16] and in [19] was “Active” in each case. For the same compound, the viability at 5 µM in series [17] was determined as 96.3%. For the same compound, the “inhibition (INH)” value in [26] is “Not Active”. The compound also registered an inhibition at 10 µM in [24] of 71.2%.

Values taken from ChEMBL document CHEMBL5584327, “Phenylstyrylpyrimidine derivatives as potential multipotent therapeutics for Alzheimer's disease” (RSC Med Chem, 2024).
